Laboratory results published in US12492173B2, “Herbicidal substituted N-tetrazolyl aryl carboxamides” (Bayer Aktiengesellschaft, priority 2019, dated 2025).

Assays:
Type in all cases: in vivo
Abutilon theophrasti = assay: Pre-emergence herbicidal action, ABUTH; design: key to Herbicidal action against ABUTH: % activity: 100 = plants have died, 0 = like control plants
Outline: (§1)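 Seeds were covered with sandy loam soil, then received a pre-emergence surface spray of the WP- or EC-formulated compound. After 3 weeks under good greenhouse growth conditions, damage was scored visually in percent.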

Amaranthus retroflexus [1] = assay: Pre-emergence herbicidal action, AMARE; design: key to Herbicidal action against AMARE: % activity: 100 = plants have died, 0 = like control plants; settings: for Herbicidal action against AMARE: comparative experiment, 20 g of a.i./ha
Outline: as §1

Cyperus esculentus [2] = assay: Pre-emergence herbicidal action, CYPES; design: key: % activity: 100 = plants have died, 0 = like control plants; settings: comparative experiment, 20 g of a.i./ha
From the text: (§2) 1. Pre-Emergence Herbicidal Action Against Harmful Plants Seeds of monocotyledonous and dicotyledonous weed plants and crop plants are laid out in sandy loam soil in wood-fiber pots and covered with soil. The compounds of the invention, formulated in the form of wettable powders (WP) or as emulsion concentrates (EC), are then applied to the surface of the covering soil in the form of an aqueous suspension or emulsion at a water application rate equating to 600 to 800 l/ha, with addition of 0.2% wetting agent. After the treatment, the pots are placed in a greenhouse and kept under good growth conditions for the trial plants. The damage to the test plants is scored visually after a test period of 3 weeks by comparison with untreated controls (herbicidal activity in percent (%): 100% activity=the plants have died, 0% activity=like control plants). […] The tables below illustrate, in an exemplary manner, the […] herbicidal action of the compounds according to the invention, the herbicidal activity being stated in percent. [table] In the experiments that follow, herbicidal action of numerous inventive compounds and the known compounds that are structurally closest from D1 (WO 2012/028579 A1) and D2 (WO 2018/202535 A1) were compared under the above-specified conditions by the pre-emergence and post-emergence method. The example numbers given in the tables relate to the compounds disclosed in the respective documents. In addition to the compounds disclosed in D1 and D2, the following compounds V-1 to V-14 that are encompassed by D1 or D2 but are not compounds specified therein were used in the comparative experiments: • V-1: 2-(methylsulfanyl)-3-(methylsulfinyl)-N-(1-methyl-1H-tetrazol-5-yl)-4-(trifluoromethyl)benzamide • V-2: 2-(methylsulfanyl)-3-(methylsulfonyl)-N-(1-methyl-1H-tetrazol-5-yl)-4-(trifluoromethyl)benzamide • V-3: 2,3-bis(ethylsulfanyl)-N-(1-methyl-1H-tetrazol-5-yl)-4-(trifluoromethyl)benzamide • V-4: 2-chloro-3-(ethylsulfanyl)-N-(1-methyl-1H-tetrazol-5-yl)-4-(trifluoromethyl)benzamide • V-5: 2-chloro-4-iodo-3-(methylsulfanyl)-N-(1-methyl-1H-tetrazol-5-yl)benzamide • V-6: 2-chloro-4-iodo-3-(methylsulfinyl)-N-(1-methyl-1H-tetrazol-5-yl)benzamide • V-7: 2-chloro-4-iodo-3-(methylsulfonyl)-N-(1-methyl-1H-tetrazol-5-yl)benzamide • V-8: 2-bromo-3-(methylsulfanyl)-N-(1-methyl-1H-tetrazol-5-yl)-4-(trifluoromethyl)benzamide • V-9: 2-bromo-3-(methylsulfinyl)-N-(1-methyl-1H-tetrazol-5-yl)-4-(trifluoromethyl)benzamide • V-10: 2-bromo-3-(methylsulfonyl)-N-(1-methyl-1H-tetrazol-5-yl)-4-(trifluoromethyl)benzamide • V-11: 2-bromo-3-(ethylsulfanyl)-N-(1-methyl-1H-tetrazol-5-yl)-4-(trifluoromethyl)benzamide • V-12: 2-bromo-3-(ethylsulfinyl)-N-(1-methyl-1H-tetrazol-5-yl)-4-(trifluoromethyl)benzamide • V-13: 2-bromo-3-(ethylsulfonyl)-N-(1-methyl-1-1H-tetrazol-5-yl)-4-(trifluoromethyl)benzamide • V-14: 2-cyclopropyl-3-(ethylsulfanyl)-N-(1-methyl-1H-tetrazol-5-yl)-4-(trifluoromethyl)benzamide Herbicidal Pre-Emergence Action: […]

Echinochloa crus-galli = assay: Pre-emergence herbicidal action, ECHCG; design: key to Herbicidal action against ECHCG: % activity: 100 = plants have died, 0 = like control plants; settings: for pest or weed control at 20 g/ha: Echinochloa crus-galli, 504 h, read-out: Herbicidal action against ECHCG
Outline: as §1

Hordeum murinum = assay: Pre-emergence herbicidal action, HORMU; settings: dosage 320 g/ha, scored visually after 3 weeks vs untreated controls (100% = plants have died)
From the text: as §2

Matricaria inodora = assay: Pre-emergence herbicidal action, MATIN; design: key to Herbicidal action against MATIN: % activity: 100 = plants have died, 0 = like control plants; settings: for Herbicidal action against MATIN: comparative experiment, 20 g of a.i./ha
Outline: as §1

Pharbitis purpurea = assay: Pre-emergence herbicidal action, PHBPU; settings: dosage 320 g/ha, scored visually after 3 weeks vs untreated controls (100% = plants have died)
From the text: as §2

Polygonum convolvulus [3] = assay: Pre-emergence herbicidal action, POLCO
Outline: as §1

Setaria viridis = assay: Pre-emergence herbicidal action, SETVI; design: key to Herbicidal action against SETVI: % activity: 100 = plants have died, 0 = like control plants; settings: for Herbicidal action against SETVI: comparative experiment, 20 g of a.i./ha
Outline: as §1

Stellaria media [4] = assay: Pre-emergence herbicidal action, STEME; design: key to Herbicidal action against STEME: % activity: 100 = plants have died, 0 = like control plants; settings: for Herbicidal action against STEME: comparative experiment, 20 g of a.i./ha
Outline: as §1

Veronica persica = assay: Pre-emergence herbicidal action, VERPE; design: key to Herbicidal action against VERPE: % activity: 100 = plants have died, 0 = like control plants; settings: for Herbicidal action against VERPE: comparative experiment, 20 g of a.i./ha
Outline: as §1

Viola tricolor = assay: Pre-emergence herbicidal action, VIOTR; design: key to Herbicidal action against VIOTR: % activity: 100 = plants have died, 0 = like control plants
Outline: as §1

Polygonum convolvulus [5] = assay: Post-emergence herbicidal action, POLCO; settings: comparative experiment, post-emergence, 5 g of a.i./ha
Outline: (§3)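 One-leaf-stage weeds, raised from seed in greenhouse sandy loam, received a single foliar spray of compound as wettable powder or emulsion concentrate with 0.2% wetting agent added. Growth continued under optimal conditions for about 3 weeks before percent damage was scored by eye against controls.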

Alopecurus myosuroides [6] = assay: Post-emergence herbicidal action, ALOMY; design: key: % herbicidal action vs untreated; 100 = plants died, 0 = like control; settings: comparative experiment, post-emergence, 5 g of a.i./ha
Experimental: (§4) [table] 2. Post-Emergence Herbicidal Action Against Harmful Plants Seeds of monocotyledonous and dicotyledonous weed and crop plants are laid out in sandy loam soil in wood-fiber pots, covered with soil and cultivated in a greenhouse under good growth conditions. 2 to 3 weeks after sowing, the test plants are treated at the one-leaf stage. The compounds of the invention, formulated in the form of wettable powders (WP) or as emulsion concentrates (EC), are then sprayed onto the green parts of the plants in the form of an aqueous suspension or emulsion at a water application rate equating to 600 to 800 l/ha, with addition of 0.2% wetting agent. After the test plants have been left to stand in the greenhouse under optimal growth conditions for about 3 weeks, the action of the preparations is assessed visually in comparison to untreated controls (herbicidal action in percent (%): 100% activity=the plants have died, 0% activity=like control plants). […] The tables below illustrate, in an exemplary manner, the post-emergence herbicidal action of the compounds according to the invention, the herbicidal activity being stated in percent. In the experiments that follow, herbicidal action of numerous inventive compounds and the known compounds that are structurally closest from D1 (WO 2012/028579 A1) and D2 (WO 2018/202535 A1) were compared under the above-specified conditions by the pre-emergence and post-emergence method. The example numbers given in the tables relate to the compounds disclosed in the respective documents. In addition to the compounds disclosed in D1 and D2, the following compounds V-1 to V-14 that are encompassed by D1 or D2 but are not compounds specified therein were used in the comparative experiments: • V-1: 2-(methylsulfanyl)-3-(methylsulfinyl)-N-(1-methyl-1H-tetrazol-5-yl)-4-(trifluoromethyl)benzamide • V-2: 2-(methylsulfanyl)-3-(methylsulfonyl)-N-(1-methyl-1H-tetrazol-5-yl)-4-(trifluoromethyl)benzamide • V-3: 2,3-bis(ethylsulfanyl)-N-(1-methyl-1H-tetrazol-5-yl)-4-(trifluoromethyl)benzamide • V-4: 2-chloro-3-(ethylsulfanyl)-N-(1-methyl-1H-tetrazol-5-yl)-4-(trifluoromethyl)benzamide • V-5: 2-chloro-4-iodo-3-(methylsulfanyl)-N-(1-methyl-1H-tetrazol-5-yl)benzamide • V-6: 2-chloro-4-iodo-3-(methylsulfinyl)-N-(1-methyl-1H-tetrazol-5-yl)benzamide • V-7: 2-chloro-4-iodo-3-(methylsulfonyl)-N-(1-methyl-1H-tetrazol-5-yl)benzamide • V-8: 2-bromo-3-(methylsulfanyl)-N-(1-methyl-1H-tetrazol-5-yl)-4-(trifluoromethyl)benzamide • V-9: 2-bromo-3-(methylsulfinyl)-N-(1-methyl-1H-tetrazol-5-yl)-4-(trifluoromethyl)benzamide • V-10: 2-bromo-3-(methylsulfonyl)-N-(1-methyl-1H-tetrazol-5-yl)-4-(trifluoromethyl)benzamide • V-11: 2-bromo-3-(ethylsulfanyl)-N-(1-methyl-1H-tetrazol-5-yl)-4-(trifluoromethyl)benzamide • V-12: 2-bromo-3-(ethylsulfinyl)-N-(1-methyl-1H-tetrazol-5-yl)-4-(trifluoromethyl)benzamide • V-13: 2-bromo-3-(ethylsulfonyl)-N-(1-methyl-1-1H-tetrazol-5-yl)-4-(trifluoromethyl)benzamide • V-14: 2-cyclopropyl-3-(ethylsulfanyl)-N-(1-methyl-1H-tetrazol-5-yl)-4-(trifluoromethyl)benzamide Herbicidal Pre-Emergence Action: […]

Amaranthus retroflexus [7] = assay: Post-emergence herbicidal action, AMARE; design: key: % herbicidal action vs untreated; 100 = plants died, 0 = like control; settings: comparative experiment, post-emergence, 5 g of a.i./ha
Outline: as §3

Cyperus esculentus [8] = assay: Post-emergence herbicidal action, CYPES; design: key: % herbicidal action vs untreated; 100 = plants died, 0 = like control; settings: comparative experiment, post-emergence, 5 g of a.i./ha
Experimental: as §4

Stellaria media [9] = assay: Post-emergence herbicidal action, STEME; design: key: % herbicidal action vs untreated; 100 = plants died, 0 = like control; settings: comparative experiment, post-emergence, 5 g of a.i./ha
Outline: as §3

Alopecurus myosuroides [10] = assay: Pre-emergence herbicidal action, ALOMY; design: key: % activity: 100 = plants have died, 0 = like control plants; settings: comparative experiment, 20 g of a.i./ha
From the text: as §2

[11] = dosage 320 g/ha, scored visually after 3 weeks vs untreated controls (100% = plants have died)
[12] = comparative experiment, 20 g of a.i./ha

`CSc1c(C(=O)Nc2nnnn2C)ccc(C(F)(F)F)c1CS(C)(=O)=O` [Example 1-163] was tested, and the “herbicidal activity ABUTH” value (Abutilon theophrasti; [11]) was 100%, the “herbicidal activity AMARE” value (Amaranthus retroflexus [1]; [11]) was 100% and the “Herbicidal action against CYPES” value (Cyperus esculentus [2]) was 70. For the same compound, the “Herbicidal action against ECHCG” value (Echinochloa crus-galli; [12]) was 90, the “herbicidal activity ECHCG” value (Echinochloa crus-galli; [11]) was 100% and the “herbicidal activity HORMU” value (Hordeum murinum) was 90%. For the same compound, the “herbicidal activity MATIN” value (Matricaria inodora; [11]) was 100%, the “herbicidal activity PHBPU” value (Pharbitis purpurea) was 80% and the “Herbicidal action against POLCO” value (Polygonum convolvulus [3]; [12]) was 70. For the same compound, the “herbicidal activity POLCO” value (Polygonum convolvulus [3]; [11]) was 100%, the “herbicidal activity SETVI” value (Setaria viridis; [11]) was 100% and the “herbicidal activity STEME” value (Stellaria media [4]; [11]) was 100%. The “herbicidal activity VERPE” value (Veronica persica; [11]) was 100%, the “herbicidal activity VIOTR” value (Viola tricolor; [11]) was 100% and the “Herbicidal action against POLCO” value (Polygonum convolvulus [5]) was 70.

In the case of `CSc1c(I)ccc(C(=O)Nc2nnnn2C)c1Cl` [Example V-5, 2-chloro-4-iodo-3-(methylsulfanyl)-N-(1-methyl-1H-tetrazol-5-yl)benzamide, reference compound], the “Herbicidal action against AMARE” value (Amaranthus retroflexus [1]) is reported as 70, the “Herbicidal action against CYPES” value (Cyperus esculentus [2]) is reported as 0 and the pest or weed control at 20 g/ha (Echinochloa crus-galli; [12]) is reported as 0%. The “Herbicidal action against MATIN” value (Matricaria inodora) was 20, the “Herbicidal action against SETVI” value (Setaria viridis) was 0 and the “Herbicidal action against STEME” value (Stellaria media [4]) was 0. For the same compound, the “Herbicidal action against VERPE” value (Veronica persica) was 0, the “Herbicidal action against ALOMY” value (Alopecurus myosuroides [6]) was 40 and the “Herbicidal action against AMARE” value (Amaranthus retroflexus [7]) was 70. The “Herbicidal action against CYPES” value (Cyperus esculentus [8]) was 10 and the “Herbicidal action against STEME” value (Stellaria media [9]) was 10.

`Cn1nnnc1NC(=O)c1ccc(I)c([S+](C)[O-])c1Cl` (stereo not drawn) [Example V-6, 2-chloro-4-iodo-3-(methylsulfinyl)-N-(1-methyl-1H-tetrazol-5-yl)benzamide, reference compound] was tested, and the “Herbicidal action against ABUTH” value (Abutilon theophrasti; [12]) was 40, the “Herbicidal action against ALOMY” value (Alopecurus myosuroides [10]) was 30 and the “Herbicidal action against AMARE” value (Amaranthus retroflexus [1]) was 50. The “Herbicidal action against MATIN” value (Matricaria inodora) was 60, the “Herbicidal action against SETVI” value (Setaria viridis) was 60 and the “Herbicidal action against STEME” value (Stellaria media [4]) was 0.

With `Cn1nnnc1NC(=O)c1ccc(C(F)(F)F)c([S+](C)[O-])c1Br` (stereo not drawn) [Example V-9, 2-bromo-3-(methylsulfinyl)-N-(1-methyl-1H-tetrazol-5-yl)-4-(trifluoromethyl)benzamide, reference compound] the “Herbicidal action against ALOMY” value (Alopecurus myosuroides [10]) was 20, the pest or weed control at 20 g/ha (Echinochloa crus-galli; [12]) was 60% and the “Herbicidal action against SETVI” value (Setaria viridis) was 40. For the same compound, the “Herbicidal action against STEME” value (Stellaria media [4]) was 60 and the “Herbicidal action against VIOTR” value (Viola tricolor; [12]) was 70.

In the case of `Cn1nnnc1NC(=O)c1ccc(C(F)(F)F)c(S(C)(=O)=O)c1Br` [Example V-10, 2-bromo-3-(methylsulfonyl)-N-(1-methyl-1H-tetrazol-5-yl)-4-(trifluoromethyl)benzamide, reference compound], the “Herbicidal action against ALOMY” value (Alopecurus myosuroides [10]) is reported as 10 and the “Herbicidal action against VERPE” value (Veronica persica) is reported as 60.
